Measurements published in the NIST ThermoML archive (doi:10.1021/je5005752).

Assay: xn = mol fraction of the nth substance listed
Settings: 101 kPa, Liquid; for viscosity: Falling or rolling sphere viscometry; for mass density: Vibrating tube method

CCCC(=O)OCC [ethyl butanoate] + CC(C)CCO
Settings	mass density [kg/m3]	viscosity [mPa·s]
288.15 K, x1 = 0.1001	820.68	3.238
288.15 K, x1 = 0.2	828.59	2.255
288.15 K, x1 = 0.3	836.24	1.754
288.15 K, x1 = 0.4	843.64	1.414
288.15 K, x1 = 0.5	850.77	1.184
288.15 K, x1 = 0.6	857.71	1.031
288.15 K, x1 = 0.7	864.47	0.9059
288.15 K, x1 = 0.7999	871.18	0.8213
288.15 K, x1 = 0.8995	877.79	0.7679
288.15 K, x1 = 1	884.16	0.7224
293.15 K, x1 = 0.1001	816.74	2.813
293.15 K, x1 = 0.2	824.48	2
293.15 K, x1 = 0.3	831.95	1.575
293.15 K, x1 = 0.4	839.17	1.285
293.15 K, x1 = 0.5	846.15	1.086
293.15 K, x1 = 0.6	852.95	0.953
293.15 K, x1 = 0.7	859.56	0.8432
293.15 K, x1 = 0.7999	866.14	0.7689
293.15 K, x1 = 0.8995	872.63	0.7214
293.15 K, x1 = 1	878.9	0.6808
298.15 K, x1 = 0.1001	812.8	2.462
298.15 K, x1 = 0.2	820.34	1.785
298.15 K, x1 = 0.3	827.63	1.422
298.15 K, x1 = 0.4	834.7	1.172
298.15 K, x1 = 0.5	841.51	0.9993
298.15 K, x1 = 0.6	848.16	0.8831
298.15 K, x1 = 0.7	854.64	0.7864
298.15 K, x1 = 0.7999	861.09	0.7207
298.15 K, x1 = 0.8995	867.46	0.6784
298.15 K, x1 = 1	873.62	0.643
303.15 K, x1 = 0.1001	808.84	2.164
303.15 K, x1 = 0.2	816.19	1.598
303.15 K, x1 = 0.3	823.31	1.288
303.15 K, x1 = 0.4	830.2	1.073
303.15 K, x1 = 0.5	836.86	0.9221
303.15 K, x1 = 0.6	843.37	0.8204
303.15 K, x1 = 0.7	849.71	0.7345
303.15 K, x1 = 0.7999	856.02	0.6764
303.15 K, x1 = 0.8995	862.27	0.6389
303.15 K, x1 = 1	868.33	0.6072
308.15 K, x1 = 0.1001	804.86	1.914
308.15 K, x1 = 0.2	812.02	1.439
308.15 K, x1 = 0.3	818.96	1.172
308.15 K, x1 = 0.4	825.69	0.9851
308.15 K, x1 = 0.5	832.19	0.853
308.15 K, x1 = 0.6	838.55	0.7639
308.15 K, x1 = 0.7	844.75	0.6872
308.15 K, x1 = 0.7999	850.94	0.6355
308.15 K, x1 = 0.8995	857.07	0.6026
308.15 K, x1 = 1	863.02	0.5736
313.15 K, x1 = 0.1001	800.85	1.7
313.15 K, x1 = 0.2	807.82	1.302
313.15 K, x1 = 0.3	814.58	1.069
313.15 K, x1 = 0.4	821.15	0.9071
313.15 K, x1 = 0.5	827.5	0.7907
313.15 K, x1 = 0.6	833.71	0.7128
313.15 K, x1 = 0.7	839.78	0.6437
313.15 K, x1 = 0.7999	845.83	0.5975
313.15 K, x1 = 0.8995	851.85	0.569
313.15 K, x1 = 1	857.7	0.5425
318.15 K, x1 = 0.1001	796.81	1.516
318.15 K, x1 = 0.2	803.6	1.181
318.15 K, x1 = 0.3	810.18	0.9787
318.15 K, x1 = 0.4	816.58	0.8373
318.15 K, x1 = 0.5	822.78	0.7346
318.15 K, x1 = 0.6	828.85	0.6658
318.15 K, x1 = 0.7	834.78	0.6038
318.15 K, x1 = 0.7999	840.71	0.5626
318.15 K, x1 = 0.8995	846.61	0.538
318.15 K, x1 = 1	852.36	0.5132
323.15 K, x1 = 0.1001	792.73	1.371
323.15 K, x1 = 0.2	799.34	1.08
323.15 K, x1 = 0.3	805.76	0.8983
323.15 K, x1 = 0.4	811.99	0.7743
323.15 K, x1 = 0.5	818.03	0.6838
323.15 K, x1 = 0.6	823.96	0.6195
323.15 K, x1 = 0.7	829.75	0.5672
323.15 K, x1 = 0.7999	835.56	0.5303
323.15 K, x1 = 0.8995	841.34	0.5071
323.15 K, x1 = 1	847	0.487
